Laboratory results reported in US10463658B2, “Method of inhibiting FLT3 kinase” (AROG Pharmaceuticals, LLC, priority 2013, dated 2019).
Positions count from the first letter of the chain named.

Legend:
FLT3 autoinhibited = molecular target: T1, FLT3 autoinhibited (Homo sapiens, UniProt P36888); experiment: KINOMEscan KdElect competitive binding assay, autoinhibited FLT3; details: tosylate salt; average Kd; read-out: Binding Constant (Kd), FLT3 autoinhibited
T1 construct: host or cells: E. coli BL21-derived host (T7 phage) or HEK-293
T1 sequence (P36888 564-993 limits assumed): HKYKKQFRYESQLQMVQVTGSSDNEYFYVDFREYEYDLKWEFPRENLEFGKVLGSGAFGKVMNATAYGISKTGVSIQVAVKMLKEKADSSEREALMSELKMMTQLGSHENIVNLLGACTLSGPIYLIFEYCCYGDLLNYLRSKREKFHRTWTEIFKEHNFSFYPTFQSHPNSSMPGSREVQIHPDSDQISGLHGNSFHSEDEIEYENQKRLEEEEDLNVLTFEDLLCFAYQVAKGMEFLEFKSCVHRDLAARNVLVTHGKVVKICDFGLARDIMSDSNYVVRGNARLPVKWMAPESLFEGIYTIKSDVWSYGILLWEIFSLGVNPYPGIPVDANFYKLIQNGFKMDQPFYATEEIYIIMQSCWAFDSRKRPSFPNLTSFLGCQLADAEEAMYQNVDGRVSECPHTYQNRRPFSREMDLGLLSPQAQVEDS
Description: (§1) Competitive binding assay.
(§2) The lysates were then centrifuged and filtered.

FLT3 wild type = molecular target: T2, FLT3 wild type (Homo sapiens, UniProt P36888); experiment: KINOMEscan KdElect competitive binding assay, wild type FLT3; details: CP-673,451 as tosylate salt; read-out: Binding Constant (Kd), FLT3 wild type
T2 construct: host or cells: E. coli BL21-derived host (T7 phage) or HEK-293
T2 sequence (P36888 610-943 limits assumed): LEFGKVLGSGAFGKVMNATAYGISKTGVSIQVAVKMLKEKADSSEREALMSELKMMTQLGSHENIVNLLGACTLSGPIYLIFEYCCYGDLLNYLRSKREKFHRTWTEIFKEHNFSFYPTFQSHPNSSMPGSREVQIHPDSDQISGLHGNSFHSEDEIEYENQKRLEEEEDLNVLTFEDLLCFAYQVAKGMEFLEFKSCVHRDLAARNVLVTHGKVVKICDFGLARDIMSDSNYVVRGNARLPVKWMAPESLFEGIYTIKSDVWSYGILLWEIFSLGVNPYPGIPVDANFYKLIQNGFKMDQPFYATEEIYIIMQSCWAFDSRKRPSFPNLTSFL

FLT3 D835V = molecular target: T3, FLT3 D835V (Homo sapiens, UniProt P36888, D835V); experiment: KINOMEscan KdElect competitive binding assay, FLT3 D835V; details: tosylate salt
T3 construct: host or cells: E. coli BL21-derived host (T7 phage) or HEK-293
T3 sequence (P36888 610-943 D835V limits assumed): T2 sequence (P36888 610-943 limits assumed) with D226V
Description: as §1, §2

FLT3 N841I = molecular target: T4, FLT3 N841I (Homo sapiens, UniProt P36888, N841I); experiment: KINOMEscan KdElect competitive binding assay, FLT3 N841I; details: tosylate salt; read-out: Binding Constant (Kd), FLT3 N841I
T4 construct: host or cells: E. coli BL21-derived host (T7 phage) or HEK-293
T4 sequence (P36888 610-943 N841I limits assumed): T2 sequence (P36888 610-943 limits assumed) with N232I
Description: as §1, §2

[1] = test system: Molm 13-RES-luc cells that expressed FLT3-ITD/D835Y; experiment: MTT assay in tandutinib-resistant Molm 13-RES-luc cells; format: cell-based; details: Homo sapiens, tandutinib resistant Molm 13 cells, mean of 3 studies with 6 replicates each (n=18), read-out: IC50 pFLT3 (text: cell viability, MTT assay)
FLT3 ITD = molecular target: T5, FLT3 ITD (Homo sapiens, UniProt P36888); details: read-out: Binding Constant (Kd), FLT3 ITD; CP-673,451 as tosylate salt
T5 sequence (P36888 1-993): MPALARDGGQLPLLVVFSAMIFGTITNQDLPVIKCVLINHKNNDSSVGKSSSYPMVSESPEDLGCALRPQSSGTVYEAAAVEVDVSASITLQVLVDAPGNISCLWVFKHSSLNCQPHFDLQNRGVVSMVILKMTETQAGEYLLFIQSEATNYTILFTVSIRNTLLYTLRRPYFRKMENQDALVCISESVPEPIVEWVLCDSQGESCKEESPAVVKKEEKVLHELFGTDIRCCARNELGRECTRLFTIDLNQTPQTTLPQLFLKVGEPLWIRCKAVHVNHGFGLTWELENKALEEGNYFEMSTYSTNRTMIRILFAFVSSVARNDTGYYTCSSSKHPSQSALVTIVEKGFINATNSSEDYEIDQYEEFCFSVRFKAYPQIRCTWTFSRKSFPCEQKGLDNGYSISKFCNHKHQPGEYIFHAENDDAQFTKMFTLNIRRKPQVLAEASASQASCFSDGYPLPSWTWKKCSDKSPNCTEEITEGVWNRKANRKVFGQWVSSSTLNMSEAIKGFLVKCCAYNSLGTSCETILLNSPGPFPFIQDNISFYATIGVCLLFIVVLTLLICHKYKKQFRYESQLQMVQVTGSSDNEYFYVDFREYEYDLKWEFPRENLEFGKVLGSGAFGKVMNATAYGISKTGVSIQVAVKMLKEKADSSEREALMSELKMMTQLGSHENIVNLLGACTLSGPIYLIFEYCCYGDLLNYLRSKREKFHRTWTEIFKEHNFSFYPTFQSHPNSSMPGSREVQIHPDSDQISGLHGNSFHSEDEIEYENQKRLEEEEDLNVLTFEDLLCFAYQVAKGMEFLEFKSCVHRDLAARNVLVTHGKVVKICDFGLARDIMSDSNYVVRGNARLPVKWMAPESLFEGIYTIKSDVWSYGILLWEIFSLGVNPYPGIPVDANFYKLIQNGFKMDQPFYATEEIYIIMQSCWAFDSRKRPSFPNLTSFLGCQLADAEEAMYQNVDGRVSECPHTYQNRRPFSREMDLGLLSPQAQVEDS

COCCOc1ccc2c(c1)ncn2-c1ccc2cccc(N3CCC(N)CC3)c2n1 [CP-673,451]
Kd (FLT3 autoinhibited): 18 nM | Kd (FLT3 wild type): 0.35 nM | Kd (FLT3 D835V): 0.015 nM | Kd (FLT3 N841I): 0.39 nM | IC50 [1]: 3.3 nM | Kd (FLT3 ITD): 0.25 nM
